Values of other authors in patent publication US11091809B2, “Molecular diagnostic test for cancer” (ALMAC DIAGNOSTICS LIMITED, priority 2012, dated 2021).

How the values were obtained:
[1] = system: ovarian cancer; details: bevacizumab monotherapy
[2] = system: renal cancer; details: bevacizumab monotherapy
[3] = system: rectal cancer; details: bevacizumab monotherapy
[4] = system: primary peritoneal carcinoma, fallopian tube carcinoma, and epithelial ovarian carcinoma; details: ICON7

bevacizumab: recombinant humanised version of a murine anti-human VEGF monoclonal antibody
patients showing partial regression [1]: 21% | patients showing partial regression [2]: 10% | patients showing partial regression [3]: 33% | hazard ratio for death ([4]; bevacizumab group, patients at high risk of progression (FIGO stage IV or stage III with greater than 1.0 cm residual disease after debulking surgery)): 0.64 | hazard ratio for progression-free survival ([4]; standard chemotherapy (carboplatin and paclitaxel) and bevacizumab vs standard chemotherapy): 0.81
